Reference: ChEMBL document CHEMBL2396517, “Design, synthesis and biological evaluation of novel aminothiazoles as antiviral compounds acting against human rhinovirus” (Bioorg Med Chem Lett, 2013)

Legend:
[1] = Permeability across apical to basolateral side in human Caco2 cells; assay type: ADME, cell-based; conditions: Caco-2, read-out: permeability
physchem = conditions: buffer, pH 7.4
[2] = (§1) Oral bioavailability in rat at 5 mg/kg; assay type: ADME, organism-based; conditions: in vivo
[3] = Total clearance in rat at 5 mg/kg, po and 2 mg/kg, iv; assay type: ADME, organism-based; conditions: in vivo
[4] = AUC in rat at 5 mg/kg, po and 2 mg/kg, iv; assay type: ADME, organism-based; conditions: plasma
[5] = Half life in rat at 5 mg/kg, po and 2 mg/kg, iv; assay type: ADME, organism-based; conditions: in vivo
[6] = Cmax in rat at 5 mg/kg, po and 2 mg/kg, iv; assay type: ADME, organism-based; conditions: in vivo
Rattus norvegicus = assay: as §1; assay type: ADME, organism-based; conditions: in vivo
[7] = Cmax in CD1 mouse at 250 mg/kg; assay type: ADME, organism-based; design: dose 250 mg/kg; conditions: in vivo
[8] = Cmax in CD1 mouse at 50 mg/kg; assay type: ADME, organism-based; design: dose 50 mg/kg; conditions: in vivo
[9] = Cmax in CD1 mouse at 5 mg/kg; assay type: ADME, organism-based; design: dose 5 mg/kg; conditions: in vivo
[10] = AUC in CD1 mouse at 50 mg/kg; assay type: ADME, organism-based; design: dose 50 mg/kg; conditions: plasma
[11] = AUC in CD1 mouse at 5 mg/kg; assay type: ADME, organism-based; design: dose 5 mg/kg; conditions: plasma
[12] = Total clearance in CD1 mouse at 2 mg/kg, iv; assay type: ADME, organism-based; design: dose 2 mg/kg, route intravenous; conditions: in vivo
[13] = AUC in CD1 mouse at 250 mg/kg; assay type: ADME, organism-based; design: dose 250 mg/kg; conditions: plasma

Nc1ccc(-c2cnc(NC(=O)CN(Cc3ccccc3)C(=O)c3ccncc3)s2)cc1
Papp A→B [1]: 11.3 ×10⁻⁶ cm/s | logD (physchem): 2.9

Nc1ccc(-c2cnc(NC(=O)CN(Cc3ccccc3)C(=O)c3ccncc3)s2)cn1
Papp A→B [1]: 2.3 ×10⁻⁶ cm/s | logD (physchem): 2.6

Cc1nc(NC(=O)CN(Cc2ccccc2)C(=O)c2ccncc2)sc1-c1ccc(N)nc1
Papp A→B [1]: 2.1 ×10⁻⁶ cm/s | logD (physchem): 2.8

Cc1nc(NC(=O)CN2C(=O)OC[C@H]2C(C)C)sc1-c1ccc(N)cc1
Papp A→B [1]: 19 ×10⁻⁶ cm/s | logD (physchem): 2.5

CC(=O)N1[C@@H](c2ccccc2)CC[C@H]1C(=O)Nc1ncc(-c2ccc(N)cc2)s1
Papp A→B [1]: 21 ×10⁻⁶ cm/s | logD (physchem): 3.2

Cc1ccc(C(=O)N(CC(=O)Nc2ncc(-c3ccc(N)cc3)s2)Cc2ccccc2)cn1
Papp A→B [1]: 17 ×10⁻⁶ cm/s

CO[C@H]1CC[C@@H](C(=O)Nc2nc(C)c(-c3ccc(N)nc3)s2)CC1
bioavailability [2]: 77% | clearance [3]: 70 mL/min/kg | Papp A→B [1]: 18 ×10⁻⁶ cm/s | logD (physchem): 2.8 | AUC [4]: 2.65 µM·h | half-life [5]: 0.38 h | Cmax [6]: 1.5 µM

Cc1nc(NC(=O)[C@H]2CC[C@@H](C(F)(F)F)CC2)sc1-c1ccc(N)nc1
Papp A→B [1]: 22 ×10⁻⁶ cm/s | logD (physchem): 3.8

Cc1nc(NC(=O)C2(C)CCCCC2)sc1-c1ccc(N)nc1
Papp A→B [1]: 20 ×10⁻⁶ cm/s | logD (physchem): 3.8

Cc1nc(NC(=O)C(C)CC(F)(F)F)sc1-c1ccc(N)nc1 (stereo not given)
F (Rattus norvegicus): 160% | clearance [3]: 40 mL/min/kg | Papp A→B [1]: 20 ×10⁻⁶ cm/s | logD (physchem): 2.9 | AUC [4]: 9.7 µM·h | half-life [5]: 1.7 h | Cmax [6]: 1.9 µM

Cc1nc(NC(=O)Cc2nc(-c3ccccc3)c(C)o2)sc1-c1ccc(N)nc1
Papp A→B [1]: 26 ×10⁻⁶ cm/s | logD (physchem): 4

Cc1nc(NC(=O)[C@H](C)CC(F)(F)F)sc1-c1ccc(N)nc1
Cmax [7]: 55 µM | Cmax [8]: 18 µM | Papp A→B [1]: 44 ×10⁻⁶ cm/s | Cmax [9]: 1.8 µM | logD (physchem): 3.2 | AUC [10]: 44 µM·h | AUC [11]: 2.7 µM·h | clearance [12]: 91 mL/min/kg | AUC [13]: 176 µM·h

Cc1nc(NC(=O)[C@@H](C)CC(F)(F)F)sc1-c1ccc(N)nc1
Cmax [7]: 26 µM | Cmax [8]: 20 µM | Papp A→B [1]: 42 ×10⁻⁶ cm/s | Cmax [9]: 2.2 µM | logD (physchem): 3.2 | AUC [10]: 38 µM·h | AUC [11]: 4 µM·h | clearance [12]: 71 mL/min/kg | AUC [13]: 12 µM·h

Cc1nc(NC(=O)C(C)(C)CC(F)(F)F)sc1-c1ccc(N)nc1
Cmax [7]: 59 µM | Cmax [8]: 12 µM | Papp A→B [1]: 41 ×10⁻⁶ cm/s | Cmax [9]: 0.5 µM | logD (physchem): 3.4 | AUC [10]: 514 µM·h | AUC [11]: 208 µM·h | clearance [12]: 58 mL/min/kg

COc1ccc(-c2c(C)nn3c(NCCN4CCOCC4)cc(C)nc23)cc1OC
bioavailability [2]: 91% | Cmax [7]: 52 µM | Cmax [8]: 15 µM | clearance [3]: 18 mL/min/kg | Papp A→B [1]: 11 ×10⁻⁶ cm/s | Cmax [9]: 1.9 µM | logD (physchem): 2.7 | AUC [10]: 45 µM·h | AUC [11]: 3.6 µM·h | AUC [4]: 10 µM·h | AUC [13]: 307 µM·h | half-life [5]: 2.8 h | Cmax [6]: 2 µM
